We go through three compounds from patent US12121027B2, “Herbicidal combinations” (UPL LTD, priority 2018, dated 2024).

Assay [1] has as its system Phalaris minor. Briefly: Herbicidal mixture trial, percentage weed control. Type of assay: in vivo. The conditions noted are these: Pinoxaden 46 g/ha, Metribuzin 280 g/ha, 2,4-D 500 g/ha. The procedure: (§1) Trials were carried out for evaluating the herbicidal mixtures of the invention on different weeds. The percentage control was calculated from the observed percent weed coverage data after 15 DAA and 30 DAA.

Assay [2] has as its system Chenopodium album. The assay can be described thus: Herbicidal mixture trial, percentage weed control. The conditions noted are these: Pinoxaden 46 g/ha, Metribuzin 280 g/ha, 2,4-D 500 g/ha. Type of assay: in vivo. Here is the method:
as §1

The mark [3] stands for this setting: 15 DAA, combination 64 g/ha + 725 g/ha + 280 g/ha.
[4] abbreviates: 30 DAA, combination 64 + 725 + 280.

Take `CSc1nnc(C(C)(C)C)c(=O)n1N` [Metribuzin]: the “percentage control, Actual” value in assay [1] (setting [3]) is given as 67.4%; in assay [1] (setting [4]) it was 73.8%; in assay [2] (setting [3]) it was 78%; in assay [2] (setting [4]) it was 88%.
In the same order, the values of `O=C(O)COc1ccc(Cl)cc1Cl` [2,4-D] are 29%, 30.2%, 90.3% and 86%.
For `CCc1cc(C)cc(CC)c1-c1c(OC(=O)C(C)(C)C)n2n(c1=O)CCOCC2` [Pinoxaden, N 8-(2,6-diethyl-p-tolyl)-1,2,4,5-tetrahydro-7-oxo-7H-pyrazolo[1,2-d][1,4,5]oxadiazepin-9-yl 2,2-dimethylpropionate] the same measures were 53.4%, 73.6%, 68% and 85.3%.
